Values of other authors in patent US20050123615A1, “Controlled release dosage forms of azithromycin” (Pfizer Inc, priority 2003, published 2005).

Details: 3,995 human patients, all dose levels combined, oral

- patients reporting abdominal pain: 2.5%
- patients reporting diarrhea: 3.6%
- patients reporting nausea: 2.6%
SMILES: CC[C@H]1OC(=O)[C@H](C)[C@@H](O[C@H]2C[C@@](C)(OC)[C@@H](O)[C@H](C)O2)[C@H](C)[C@@H](O[C@@H]2O[C@H](C)C[C@H](N(C)C)[C@H]2O)[C@](C)(O)C[C@@H](C)CN(C)[C@H](C)[C@@H](O)[C@]1(C)O [azithromycin, 9a-aza-9a-methyl-9-deoxo-9a-homoerythromycin A]
- patients reporting GI side effects: 9.6%
